Results reported in article PMC8373216, “Development and Preclinical Evaluation of New Inhaled Lipoglycopeptides for the Treatment of Persistent Pulmonary Methicillin-Resistant Staphylococcus aureus Infections” (Antimicrobial Agents and Chemotherapy, 2021).
Converted amounts (≈) assume the structure as drawn. Read-outs that look alike come from different tables or passages of the source.

Experiments:
[1] = Single-dose nebulized nose-only inhalation PK in healthy rats; assay type: in vivo, rat; details: male, Sprague Dawley, rat, in vivo
Summary of the method: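 Ten or eleven rats per cohort dosed once by nebulized nose-only inhalation, delivered dose estimated from 5 min aerosol filter sampling. Lungs and plasma collected from immediately postdose (~30 min) to 168 h; drug quantified by LC-MS/MS after protein precipitation. PK by noncompartmental analysis, linear up/log down.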

[2] = tested on: Staphylococcus haemolyticus; assay: Expanded panel broth microdilution MIC; assay type: cell-based
[3] = tested on: Enterococcus faecalis; assay: Expanded panel broth microdilution MIC/MBC; assay type: cell-based
[4] = tested on: Enterococcus faecium; assay: Expanded panel broth microdilution MIC/MBC; assay type: cell-based; details: for MIC: Enterococcus faecium, read-out: MIC
[5] = tested on: Streptococcus pneumoniae; assay: Expanded panel broth microdilution MIC/MBC; assay type: cell-based
[6] = tested on: Streptococcus dysgalactiae; assay: Expanded panel broth microdilution MIC/MBC; assay type: cell-based; details: for MIC: Streptococcus dysgalactiae
[7] = tested on: Streptococcus constellatus; assay: Expanded panel broth microdilution MIC; assay type: cell-based
[8] = tested on: Clostridioides difficile; assay: Expanded panel broth microdilution MIC; assay type: cell-based
[9] = tested on: Peptostreptococcus anaerobius; assay: Expanded panel broth microdilution MIC; assay type: cell-based
[10] = tested on: MRSA (ATCC BAA 1556; USA300); assay: Acute pulmonary MRSA infection in neutropenic rats, nebulized nose-only inhalation; assay type: in vivo, Staphylococcus aureus; details: inhaled at 24 and 32 h postinfection, lungs at 48 h, RV40 14.4 mg/kg, RV94 18.8 mg/kg delivered
Description: Rats were rendered neutropenic with intraperitoneal (i.p.) cyclophosphamide on day −4 (150 mg/kg) and day −1 (100 mg/kg) relative to the challenge. On day 0 at 0 h, rats were challenged with MRSA via intranasal instillation at a target titer of 8.0 to 8.3 log10 CFU. At 24 and 32 h postchallenge, rats were loaded into a 12-port inhalation dosing tower, where they received nebulized drug or vehicle control treatments by nose-only inhalation. Animals were euthanized at 48 h postinfection for enumeration of lung MRSA titer. MRSA lung titer of test article treatments versus control is plotted for three separate experiments. […] Statistics are based on the Kolmogorov-Smirnov test for drug treatment versus control (RV94, P = 0.01). LOD = 2.1 log10 CFU/lungset.
Male Sprague Dawley rats (Envigo, Indianapolis, IN) weighing between 225 and 250 g were used in these studies. Rats were housed and acclimated to the study facility as described in the PK methods section. Rats were rendered neutropenic through a series of intraperitoneal cyclophosphamide (Sigma-Aldrich) injections on day −4 (150 mg/kg) and day −1 (100 mg/kg) relative to the challenge. On day 0 at 0 h, rats were challenged with MRSA ATCC BAA 1556 via intranasal instillation at a target titer of 8.0 to 8.3 log10 CFU using optical density and back-counting inoculum CFU. To prepare the inoculum, a frozen aliquot of the organism stored at −80°C was thawed, transferred into TSB, and incubated at 37°C while shaking for 16 h. Cultures were then centrifuged at 2,000 × g for 5 min, and the resulting pellet was resuspended in PBS and equilibrated. For the challenge procedure, rats were first anesthetized through use of 2 to 5% isoflurane in 100% oxygen, then restrained with a scruff grip and a total of 200 μl of inoculum was quickly introduced to one nare. The rat was held in a vertical position until the challenge was fully inhaled. Rats were monitored following challenge to ensure that normal respiration was achieved and then returned to their cage. […] At necropsy, whole lungs were aseptically removed and lung weights were recorded. […]

[11] = tested on: MRSA ATCC BAA 1556 (USA300) biofilm; assay: Static MRSA biofilm killing, plastic microtiter plate, MEM

SMILES: CCCCCCCCCCNC(=O)CNC1(C)CC(OC2C(Oc3c4cc5cc3Oc3ccc(cc3Cl)C(O)C3NC(=O)C(NC(=O)C5NC(=O)C(CC(N)=O)NC(=O)C(NC(=O)C(CC(C)C)NC)C(O)c5ccc(c(Cl)c5)O4)c4ccc(O)c(c4)-c4c(O)cc(O)cc4C(C(=O)O)NC3=O)OC(CO)C(O)C2O)OC(C)C1O (stereo not drawn) [RV94]
- Pulmonary dose [1]: 1.10 mg/kg
- Drug lung level at 120 h ([1]; 120 h): 45%
- Primary hydrolysis byproduct lung level at 120 h ([1]; 120 h): 0.1%
- Kp ([1]; inhaled or intranasal): 1870
- Lung AUC0-∞ ([1]; inhaled or intranasal): 40671 µg·h/g
- Lung Cmax ([1]; inhaled or intranasal): 262 µg/g
- Lung t1/2 ([1]; inhaled or intranasal): 108 h
- Plasma Cmax ([1]; inhaled or intranasal): 140 ng/mL
- Hydrolysis product RV101 relative to parent concentration at lung Cmax ([1]; inhaled or intranasal, 120 h): 0.1%
- MIC ([2]; ATCC29970, S. haemolyticus ATCC 29970, read-out: MIC): 0.06 µg/mL (≈ 36.4 nM)
- MIC ([2]; S. haemolyticus, 1 isolate, read-out: MIC): 0.06 µg/mL (≈ 36.4 nM)
- MIC:MBC ([3]; E. faecalis VSE, MBC on one organism): >8
- MIC:MBC ([3]; E. faecalis VanA VRE): >8
- MIC ([3]; E. faecalis VanA VRE, 1 isolate): 0.03 µg/mL (≈ 18.2 nM)
- MIC ([3]; Enterococcus faecalis, ATCC29212, E. faecalis ATCC 29212, VSE, read-out: MIC): 0.03 µg/mL (≈ 18.2 nM)
- MIC ([3]; Enterococcus faecalis, E. faecalis MMX 1086, VanA VRE, read-out: MIC): 0.03 µg/mL (≈ 18.2 nM)
- MIC ([3]; Enterococcus faecalis, E. faecalis MMX 4176, VSE, read-out: MIC): 0.03 µg/mL (≈ 18.2 nM)
- MIC ([3]; Enterococcus faecalis, E. faecalis VSE, 2 isolates, read-out: MIC (median)): 0.03 µg/mL (≈ 18.2 nM)
- MIC:MBC ([4]; E. faecium VanA VRE): >8
- MIC:MBC ([4]; E. faecium VanB VRE): >8
- MIC ([4]; E. faecium MMX 4204, VSE): 0.015 µg/mL (≈ 9.11 nM)
- MIC ([4]; E. faecium VSE, 1 isolate): 0.015 µg/mL (≈ 9.11 nM)
- MIC ([4]; VRE, E. faecium MMX 173, VanB VRE): 0.03 µg/mL (≈ 18.2 nM)
- MIC ([4]; VRE, E. faecium MMX 851, VanA VRE): 2 µg/mL (≈ 1210 nM)
- MIC ([4]; VRE, E. faecium VanA VRE, 1 isolate): 2 µg/mL (≈ 1210 nM)
- MIC ([4]; VRE, E. faecium VanB VRE, 1 isolate): 0.03 µg/mL (≈ 18.2 nM)
- MIC:MBC ([5]; S. pneumoniae PISP, MBC on one organism): 4
- MIC ([5]; S. pneumoniae PRSP, 1 isolate): 0.008 µg/mL (≈ 4.86 nM)
- MIC ([5]; Streptococcus pneumoniae, ATCC49619, S. pneumoniae ATCC 49619, PISP, read-out: MIC): 0.008 µg/mL (≈ 4.86 nM)
- MIC ([5]; Streptococcus pneumoniae, S. pneumoniae MMX 432, PRSP, read-out: MIC): 0.008 µg/mL (≈ 4.86 nM)
- MIC ([5]; Streptococcus pneumoniae, S. pneumoniae MMX 747, PISP, read-out: MIC): 0.004 µg/mL (≈ 2.43 nM)
- MIC ([5]; Streptococcus pneumoniae, S. pneumoniae PISP, 2 isolates, read-out: MIC (median)): 0.006 µg/mL (≈ 3.64 nM)
- MIC:MBC ([6]; S. dysgalactiae, MBC on one organism): 4
- MIC ([6]; S. dysgalactiae MMX 5121, read-out: MIC): 0.008 µg/mL (≈ 4.86 nM)
- MIC ([6]; S. dysgalactiae MMX 5123, read-out: MIC): 0.03 µg/mL (≈ 18.2 nM)
- MIC ([6]; S. dysgalactiae MMX 5124, read-out: MIC): 0.008 µg/mL (≈ 4.86 nM)
- MIC ([6]; S. dysgalactiae, 3 isolates, read-out: MIC (median)): 0.008 µg/mL (≈ 4.86 nM)
- MIC ([7]; S. constellatus AGS, 1 isolate): 0.008 µg/mL (≈ 4.86 nM)
- MIC ([7]; Streptococcus constellatus, S. constellatus (AGS) MMX 5677, read-out: MIC): 0.008 µg/mL (≈ 4.86 nM)
- MIC ([8]; ATCCBAA1805, C. difficile ATCC BAA-1805, ribo 027, read-out: MIC): 0.015 µg/mL (≈ 9.11 nM)
- MIC ([8]; ATCCBAA1870, C. difficile ATCC BAA-1870, NAP1;ribo 027, read-out: MIC): 0.06 µg/mL (≈ 36.4 nM)
- MIC ([8]; C. difficile ATTC 700057, toxAB-, read-out: MIC): 0.015 µg/mL (≈ 9.11 nM)
- MIC ([8]; C. difficile NAP1;ribo 027, 1 isolate, read-out: MIC): 0.06 µg/mL (≈ 36.4 nM)
- MIC ([8]; C. difficile ribo 027, 1 isolate, read-out: MIC): 0.015 µg/mL (≈ 9.11 nM)
- MIC ([8]; C. difficile toxAB-, 1 isolate, read-out: MIC): 0.015 µg/mL (≈ 9.11 nM)
- MIC ([9]; ATCC27337, P. anaerobius ATCC 27337, read-out: MIC): 0.008 µg/mL (≈ 4.86 nM)
- MIC ([9]; P. anaerobius, 1 isolate, read-out: MIC): 0.008 µg/mL (≈ 4.86 nM)
- Average reduction in lung MRSA titer versus vehicle control [10]: 1.0 log10 CFU
- Reduction in MRSA biofilm titer versus control ([11]; 2.5 μg/ml): 1 log10 CFU/ml
- Reduction in MRSA biofilm titer versus control ([11]; doses 1 to 10 μg/ml): approximately 2 log10 CFU/ml
- Concentrations with statistically significant reduction versus control biofilm ([11]; two-way ANOVA, Bonferroni): no statistical significance
